# Measurements published in patent US8318504B2, “MRP2 efflux pathway prognostic method” (priority 2009, dated 2012).
# T1: NTCP (Homo sapiens, UniProt Q14973)
# T1 construct: the coding region ligated into pcDNA5/FRT; expressed in transfected cells
# T1 sequence (Q14973 1-349): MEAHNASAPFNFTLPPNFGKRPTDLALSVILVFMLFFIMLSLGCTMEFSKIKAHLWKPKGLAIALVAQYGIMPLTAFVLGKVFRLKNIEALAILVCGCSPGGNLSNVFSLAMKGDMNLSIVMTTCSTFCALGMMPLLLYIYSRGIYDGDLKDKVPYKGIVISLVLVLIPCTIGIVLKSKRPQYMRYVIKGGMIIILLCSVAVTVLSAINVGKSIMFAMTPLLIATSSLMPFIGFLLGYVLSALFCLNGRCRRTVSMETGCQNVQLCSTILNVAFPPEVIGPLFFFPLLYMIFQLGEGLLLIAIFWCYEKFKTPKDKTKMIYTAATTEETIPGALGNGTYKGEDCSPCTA
# What was measured:
# [1] = target: T1, NTCP; test: Uptake of TC and CLF into CHO cells stably expressing NTCP; type: cell-based; details: 45 seconds, sodium-dependent uptake rates
# Protocol: cDNA for human NTCP [Hagenbuch et al., J Clin Invest 1994 March; 93(3): 1326-1331] was cut with EcoRV and HindI and the coding region ligated into pcDNA5/FRT (Invitrogen, Life-Technologies, Carlsbad, Calif.). CHO FlpIn cells (Invitrogen, Life-Technologies) were transfected with the resulting construct using Lipofectamine® 2000 (Invitrogen, Life-Technologies). Stably transfected cells were selected with 550 μg Hygromycin-B in HAM-F12 medium (Gibco, Invitrogen, Life-Technologies). Transfected cells were cloned with the limiting dilution method. […] To further characterize the cloned cells, immunofluorescence localization of NTCP using a polyclonal antibody against NTCP [Kullak-Ublick G et al., Gastroenterology 1997 October; 113(4):1295-1305] was performed as described by Huber R D et al. [Am J Physiol Cell Physiol 2007 February; 292(2):[…]-[…]]. CHO cells expressing OATP1B1, OATP1B3 and OATP2B1 were described previously [Treiber et al., DMD 35:1400-1407, 2007]. For all transport experiments, cells grown on 3 cm culture dishes were cultured for 24 hours in media supplemented with 5 mmol/L sodium-butyrate to increase expression levels of transfected transporters [Palermo D P et al., J Biotechnol 1991 June; 19(1):35-47]. • Transport experiments with uptake of radioactively labeled substrates: These experiments were performed as described by Huber R D et al. […] Uptake was performed in the same buffers as for the radioactive substrates above. For visualization of CLF uptake, cells were immediately inspected with a Leica-DM-IRBE-inverted-microcope (Leica-Microsystems, Wetzlar, Germany) equipped with a Hamamatsu-ORKA-ER-camera (Hamamatsu-Photonoics, Japan). To determine uptake of CLF, cells were solubilized by the addition of 2 ml 1% (w/v) Triton-X-100. After complete solubilization, 1.5 ml was used to measure fluorescence in a Perkin-Elmer LS-5 luminescence-spectrometer set at λexe 486 nm (slit 10 nm) and λem 520 nm (slit 5 nm). Protein was determined with the bicinchoninic acid method using a kit from Interchim (Montfuçon, France). […]
# [2] = substrate: CC(CCC(=O)NC(CCCCNC(=S)Nc1ccc(-c2c3ccc(=O)cc-3oc3cc(O)ccc23)c(C(=O)O)c1)C(=O)O)C1CCC2C3C(O)CC4CC(O)CCC4(C)C3CC(O)C12C; test: ATP-dependent transport of CLF into Sf21 membrane vesicles containing ABCC2; type: biochemical, human; details: other: 10 μg total protein, presence or absence of 4 mmol/L ATP; 27.0 °C
# Protocol: (§1) The production of recombinant baculovirus was as described by de Waart et al. [Liver Int 2006 April; 26(3):362-368]. ABCC3 and ABCG2-recombinant baculovirus were a kind gift from Borst [Breedveld P. et al., Cancer Res 2004 Aug. 15; 64(16):5804-5811 and Borst P. et al., J Biol Chem 2001 Dec. 7; 276(49):46400-46407.]. ABCB11-recombinant baculovirus was a kind gift from Thompson [Thompson R J et al., Gastroenterology 2002 November; 123(5):1649-1658]. Sf21 cells grown at 27° C. were infected with ABCB11, ABCC2, ABCC3 and ABCG2-cDNA containing baculovirus. Cells were harvested at 2-4 days after infection. Membrane vesicle preparation was as described by de Waart et al. [Liver Int 2006 April; 26(3):362-368].
# (§2) Transport studies with membrane vesicles were performed using the rapid filtration technique as described by Heijn M et al. [Am J Physiol 1992 January; 262(1 Pt 1):C104-C110]. Radiolabel was measured with a scintillation counter. When CLF was used as a probe, filters were placed in a glass tube, 0.1% Triton-X-100 was added and the tubes vortexed. Samples were pipetted in 96-well plates (Kartell, Noviglio, Italy) and the amount CLF quantitated by measurement of fluorescence at λexe 485 nm and λcm 520 nm using a NovoStar (BMG-labtech, Offenburg, Germany). […]
# [3] = substrate: CC(CCC(=O)NC(CCCCNC(=S)Nc1ccc(-c2c3ccc(=O)cc-3oc3cc(O)ccc23)c(C(=O)O)c1)C(=O)O)C1CCC2C3C(O)CC4CC(O)CCC4(C)C3CC(O)C12C; test: ATP-dependent transport of CLF into Sf21 membrane vesicles containing ABCC3; type: biochemical, human; details: other: 30 μg total protein, presence or absence of 4 mmol/L ATP; 27.0 °C
# Protocol: as §1, §2
molecule,measurement,setting,value
"C[C@H](CCC(=O)NCCS(=O)(=O)O)[C@H]1CC[C@H]2[C@@H]3[C@H](O)C[C@@H]4C[C@H](O)CC[C@]4(C)[C@H]3C[C@H](O)[C@]12C [TC, taurocholate]",Vmax for sodium-dependent transport of TC,[1],6738 pmol TC/mg protein/min
same,Km,[1]; read-out: Km for sodium-dependent transport of TC,16 µM
"ABCC2 (Homo sapiens) (protein, made in house; host or cells: Sf21 insect cells, baculovirus; plasma membrane vesicles) MLEKFCNSTFWNSSFLDSPEADLPLCFEQTVLVWIPLGYLWLLAPWQLLHVYKSRTKRSSTTKLYLAKQVFVGFLLILAAIELALVLTEDSGQATVPAVRYTNPSLYLGTWLLVLLIQYSRQWCVQKNSWFLSLFWILSILCGTFQFQTLIRTLLQGDNSNLAYSCLFFISYGFQILILIFSAFSENNESSNNPSSIASFLSSITYSWYDSIILKGYKRPLTLEDVWEVDEEMKTKTLVSKFETHMKRELQKARRALQRRQEKSSQQNSGARLPGLNKNQSQSQDALVLEDVEKKKKKSGTKKDVPKSWLMKALFKTFYMVLLKSFLLKLVNDIFTFVSPQLLKLLISFASDRDTYLWIGYLCAILLFTAALIQSFCLQCYFQLCFKLGVKVRTAIMASVYKKALTLSNLARKEYTVGETVNLMSVDAQKLMDVTNFMHMLWSSVLQIVLSIFFLWRELGPSVLAGVGVMVLVIPINAILSTKSKTIQVKNMKNKDKRLKIMNEILSGIKILKYFAWEPSFRDQVQNLRKKELKNLLAFSQLQCVVIFVFQLTPVLVSVVTFSVYVLVDSNNILDAQKAFTSITLFNILRFPLSMLPMMISSMLQASVSTERLEKYLGGDDLDTSAIRHDCNFDKAMQFSEASFTWEHDSEATVRDVNLDIMAGQLVAVIGPVGSGKSSLISAMLGEMENVHGHITIKGTTAYVPQQSWIQNGTIKDNILFGTEFNEKRYQQVLEACALLPDLEMLPGGDLAEIGEKGINLSGGQKQRISLARATYQNLDIYLLDDPLSAVDAHVGKHIFNKVLGPNGLLKGKTRLLVTHSMHFLPQVDEIVVLGNGTIVEKGSYSALLAKKGEFAKNLKTFLRHTGPEEEATVHDGSEEEDDDYGLISSVEEIPEDAASITMRRENSFRRTLSRSSRSNGRHLKSLRNSLKTRNVNSLKEDEELVKGQKLIKKEFIETGKVKFSIYLEYLQAIGLFSIFFIILAFVMNSVAFIGSNLWLSAWTSDSKIFNSTDYPASQRDMRVGVYGALGLAQGIFVFIAHFWSAFGFVHASNILHKQLLNNILRAPMRFFDTTPTGRIVNRFAGDISTVDDTLPQSLRSWITCFLGIISTLVMICMATPVFTIIVIPLGIIYVSVQMFYVSTSRQLRRLDSVTRSPIYSHFSETVSGLPVIRAFEHQQRFLKHNEVRIDTNQKCVFSWITSNRWLAIRLELVGNLTVFFSALMMVIYRDTLSGDTVGFVLSNALNITQTLNWLVRMTSEIETNIVAVERITEYTKVENEAPWVTDKRPPPDWPSKGKIQFNNYQVRYRPELDLVLRGITCDIGSMEKIGVVGRTGAGKSSLTNCLFRILEAAGGQIIIDGVDIASIGLHDLREKLTIIPQDPILFSGSLRMNLDPFNNYSDEEIWKALELAHLKSFVASLQLGLSHEVTEAGGNLSIGQRQLLCLGRALLRKSKILVLDEATAAVDLETDNLIQTTIQNEFAHCTVITIAHRLHTIMDSDKVMVLDNGKIIECGSPEELLQIPGPFYFMAKEAGIENVNSTKF",Km,[2],3.3 ± 2.0 µM
"ABCC3 (Homo sapiens) (protein, made in house; host or cells: Sf21 insect cells, baculovirus (gift from Borst); plasma membrane vesicles) MDALCGSGELGSKFWDSNLSVHTENPDLTPCFQNSLLAWVPCIYLWVALPCYLLYLRHHCRGYIILSHLSKLKMVLGVLLWCVSWADLFYSFHGLVHGRAPAPVFFVTPLVVGVTMLLATLLIQYERLQGVQSSGVLIIFWFLCVVCAIVPFRSKILLAKAEGEISDPFRFTTFYIHFALVLSALILACFREKPPFFSAKNVDPNPYPETSAGFLSRLFFWWFTKMAIYGYRHPLEEKDLWSLKEEDRSQMVVQQLLEAWRKQEKQTARHKASAAPGKNASGEDEVLLGARPRPRKPSFLKALLATFGSSFLISACFKLIQDLLSFINPQLLSILIRFISNPMAPSWWGFLVAGLMFLCSMMQSLILQHYYHYIFVTGVKFRTGIMGVIYRKALVITNSVKRASTVGEIVNLMSVDAQRFMDLAPFLNLLWSAPLQIILAIYFLWQNLGPSVLAGVAFMVLLIPLNGAVAVKMRAFQVKQMKLKDSRIKLMSEILNGIKVLKLYAWEPSFLKQVEGIRQGELQLLRTAAYLHTTTTFTWMCSPFLVTLITLWVYVYVDPNNVLDAEKAFVSVSLFNILRLPLNMLPQLISNLTQASVSLKRIQQFLSQEELDPQSVERKTISPGYAITIHSGTFTWAQDLPPTLHSLDIQVPKGALVAVVGPVGCGKSSLVSALLGEMEKLEGKVHMKGSVAYVPQQAWIQNCTLQENVLFGKALNPKRYQQTLEACALLADLEMLPGGDQTEIGEKGINLSGGQRQRVSLARAVYSDADIFLLDDPLSAVDSHVAKHIFDHVIGPEGVLAGKTRVLVTHGISFLPQTDFIIVLADGQVSEMGPYPALLQRNGSFANFLCNYAPDEDQGHLEDSWTALEGAEDKEALLIEDTLSNHTDLTDNDPVTYVVQKQFMRQLSALSSDGEGQGRPVPRRHLGPSEKVQVTEAKADGALTQEEKAAIGTVELSVFWDYAKAVGLCTTLAICLLYVGQSAAAIGANVWLSAWTNDAMADSRQNNTSLRLGVYAALGILQGFLVMLAAMAMAAGGIQAARVLHQALLHNKIRSPQSFFDTTPSGRILNCFSKDIYVVDEVLAPVILMLLNSFFNAISTLVVIMASTPLFTVVILPLAVLYTLVQRFYAATSRQLKRLESVSRSPIYSHFSETVTGASVIRAYNRSRDFEIISDTKVDANQRSCYPYIISNRWLSIGVEFVGNCVVLFAALFAVIGRSSLNPGLVGLSVSYSLQVTFALNWMIRMMSDLESNIVAVERVKEYSKTETEAPWVVEGSRPPEGWPPRGEVEFRNYSVRYRPGLDLVLRDLSLHVHGGEKVGIVGRTGAGKSSMTLCLFRILEAAKGEIRIDGLNVADIGLHDLRSQLTIIPQDPILFSGTLRMNLDPFGSYSEEDIWWALELSHLHTFVSSQPAGLDFQCSEGGENLSVGQRQLVCLARALLRKSRILVLDEATAAIDLETDNLIQATIRTQFDTCTVLTIAHRLNTIMDYTRVLVLDKGVVAEFDSPANLIAARGIFYGMARDAGLA",Km,[3],3.7 ± 1.0 µM
